Results reported in patent US6803499B1, “Methods and compositions for the production of stably transformed, fertile monocot plants and cells thereof” (DeKalb Genetics Corporation, priority 1989, dated 2004).

Tested on: SC82 cells
Assay: Bialaphos selection of SC82 suspension culture cells on filters
Format: cell-based, Zea mays
Experimental: The suspension culture (designated SC82) used in the initial experiments (see Example 8) was derived from embryogenic Type-II callus of A188×B73. Following bombardment (see Example 8), cells on filters were resuspended in nonselective liquid medium, cultured for 1 to 2 weeks and transferred to filters overlaying solid medium containing 1 or 3 mg/l bialaphos. The degree of inhibition of tissue growth during selection was dependent upon the density of the cells on the filter and on the concentration of bialaphos used.
Using either selection protocol (1 or 3 mg/l bialaphos), resistant cell colonies emerged on the selection plates of SC82 bombarded with pDPG165 approximately 6 to 7 weeks after bombardment (FIG. 2A). Bialaphos-resistant calli were maintained and expanded on selection medium. Much of this tissue was embryogenic (FIG. 2B). […] These were controls which confirm the prediction that cells without the bar gene are not resistant to bialaphos.

## C[C@H](NC(=O)[C@H](C)NC(=O)[C@@H](N)CCP(C)(=O)O)C(=O)O [bialaphos]
SC82 cells, 0.5 PCV/filter, 1 mg/l bialaphos
  growth of cells cultured on bialaphos: 30-50 % of nonselected growth
SC82 cells, 0.5 PCV/filter, 3 mg/l bialaphos
  growth of cells on the original selection filter: ~10 % of nonselected growth
Cells from untransformed suspension cultures, 1 or 3 mg/l bialaphos
  colony growth on selection plates: No colony growth
